Key:
[1] = system: previously treated advanced hepatocellular carcinoma; test: Phase 3 CELESTIAL trial, efficacy (overall survival, progression-free survival, objective response); assay type: in vivo, human
Text: Eligible patients were 18 years of age or older with a pathologic diagnosis of hepatocellular carcinoma not amenable to curative treatment and with Child-Pugh Class A liver function. […] Additional inclusion criteria included Eastern Cooperative Oncology Group (ECOG) performance status of 0 or 1, acceptable hematologic parameters, and adequate renal function.
Randomization was stratified by disease etiology (HBV virus [with or without HCV], HCV [without HBV], or other), geographic region (Asia or other), and the presence of extrahepatic spread of disease and/or macrovascular invasion (yes or no).
(§1) Treatment interruptions and dose reductions (to 40 mg and then to 20 mg) were utilized to manage adverse events. Patients received study treatment as long as they experienced clinical benefit as judged by the investigator or until they experienced unacceptable toxicity.
The inflation of type 1 error was controlled by Lan-DeMets O'Brien-Fleming alpha-spending function.
Secondary efficacy endpoints were progression-free survival, defined as the time from randomization to the earlier of radiographic progression or death due to any cause, and objective response rate. Tumor assessments were performed using computed tomography or magnetic resonance imaging at baseline and every 8 weeks after randomization until the later of 8 weeks after radiographic progression or treatment discontinuation. Tumor response and progression were assessed by the investigator using Response Evaluation Criteria In Solid Tumors (RECIST) version 1.1. Eisenhauer E A, Therasse P, Bogaerts J, et al. New response evaluation criteria in solid tumours: revised RECIST guideline (version 1.1). […] Safety was continuously evaluated, and the severity of adverse events was assessed by the investigator using the National Cancer Institute Common Terminology Criteria for Adverse Events, version 4. Progression-free survival was tested by stratified log-rank test; significance level 0.04. Overall response rate was tested by 2-sided Fisher's exact test; significance level Of 0.01.
Efficacy was analyzed in all randomized patients by the intent-to-treat principle. Safety was analyzed in all patients who received at least one dose of study treatment. […] Hazard ratios were estimated using Cox regression models. Hypothesis testing for objective response was done with the Cochran-Mantel-Haenszel method. All subgroup analyses of overall survival and progression-free survival were prespecified except for those based on extrahepatic spread of disease or macrovascular invasion as separate factors or sorafenib as the only prior therapy. For subgroup analyses, no adjustments were made for multiplicity, hazard ratios are unstratified, and confidence intervals are considered descriptive.
Patients could have received one other prior systemic therapy. The primary efficacy endpoint was overall survival (OS). Secondary efficacy endpoints were progression-free survival (PFS) and objective response rate (ORR), as assessed by investigator using RECIST 1.1. Tumor assessments were conducted every 8 weeks.

KIT = KIT (Homo sapiens, UniProt P10721); test: In vitro biochemical and/or cellular kinase assays
KIT, sequence (P10721 26-976): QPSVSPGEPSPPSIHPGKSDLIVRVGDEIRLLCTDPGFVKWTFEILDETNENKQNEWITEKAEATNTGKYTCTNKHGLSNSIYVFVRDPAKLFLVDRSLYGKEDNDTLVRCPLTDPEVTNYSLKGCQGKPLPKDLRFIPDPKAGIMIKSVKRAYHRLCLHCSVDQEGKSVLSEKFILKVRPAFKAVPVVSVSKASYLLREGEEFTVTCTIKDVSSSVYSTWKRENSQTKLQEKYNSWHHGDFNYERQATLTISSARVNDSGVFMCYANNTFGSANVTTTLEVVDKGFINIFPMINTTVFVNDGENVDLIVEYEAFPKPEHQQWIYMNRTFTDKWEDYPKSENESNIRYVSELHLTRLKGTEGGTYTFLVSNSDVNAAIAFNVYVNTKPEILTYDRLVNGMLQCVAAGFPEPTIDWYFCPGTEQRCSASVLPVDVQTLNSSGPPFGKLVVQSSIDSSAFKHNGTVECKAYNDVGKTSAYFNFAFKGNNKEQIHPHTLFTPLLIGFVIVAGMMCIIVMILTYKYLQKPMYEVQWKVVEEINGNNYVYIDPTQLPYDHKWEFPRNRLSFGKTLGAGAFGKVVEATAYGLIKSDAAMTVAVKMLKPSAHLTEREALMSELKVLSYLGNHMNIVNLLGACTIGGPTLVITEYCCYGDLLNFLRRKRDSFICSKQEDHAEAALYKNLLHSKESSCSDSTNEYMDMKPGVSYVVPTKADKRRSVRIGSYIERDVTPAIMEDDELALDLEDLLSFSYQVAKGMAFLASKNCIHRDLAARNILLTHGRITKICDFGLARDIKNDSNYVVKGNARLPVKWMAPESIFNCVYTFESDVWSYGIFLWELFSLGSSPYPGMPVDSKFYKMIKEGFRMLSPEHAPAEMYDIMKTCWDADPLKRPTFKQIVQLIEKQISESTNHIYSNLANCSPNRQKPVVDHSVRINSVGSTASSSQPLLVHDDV

CYP1A2 = test: In vitro CYP induction; assay type: in vitro ADME
Sprague-Dawley rats = test: 2-year rat carcinogenicity study; assay type: in vivo
CYP2B6 = CYP2B6 (Homo sapiens, UniProt P20813); test: In vitro metabolic pathways; assay type: in vitro ADME
CYP2B6, sequence (P20813 whole entry): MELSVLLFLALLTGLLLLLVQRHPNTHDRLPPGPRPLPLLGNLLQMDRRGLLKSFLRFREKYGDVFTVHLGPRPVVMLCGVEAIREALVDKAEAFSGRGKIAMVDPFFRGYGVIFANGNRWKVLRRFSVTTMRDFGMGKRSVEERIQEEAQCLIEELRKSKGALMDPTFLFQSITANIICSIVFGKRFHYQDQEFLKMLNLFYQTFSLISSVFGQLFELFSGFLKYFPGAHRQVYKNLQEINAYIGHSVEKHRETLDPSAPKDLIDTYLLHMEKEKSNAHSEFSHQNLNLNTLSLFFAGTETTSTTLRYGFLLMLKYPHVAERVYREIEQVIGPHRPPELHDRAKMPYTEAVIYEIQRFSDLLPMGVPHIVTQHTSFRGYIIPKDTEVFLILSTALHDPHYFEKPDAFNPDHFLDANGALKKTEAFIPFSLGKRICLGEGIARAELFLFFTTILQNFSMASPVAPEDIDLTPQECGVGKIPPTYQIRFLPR

juvenile rats = assay type: in vivo, rat
Description: […]. Mortalities occurred at doses equal and greater than 1 mg/kg/day (approximately 0.16 times the clinical dose of 60 mg/day based on body surface area).

[2] = system: patients with advanced hepatocellular carcinoma; test: Phase 3 CELESTIAL trial, safety; assay type: in vivo, human
Description: as §1
Secondary efficacy endpoints were progression-free survival, defined as the time from randomization to the earlier of radiographic progression or death due to any cause, and objective response rate. Tumor assessments were performed using computed tomography or magnetic resonance imaging at baseline and every 8 weeks after randomization until the later of 8 weeks after radiographic progression or treatment discontinuation. Tumor response and progression were assessed by the investigator using Response Evaluation Criteria In Solid Tumors (RECIST) version 1.1. Eisenhauer E A, Therasse P, Bogaerts J, et al. New response evaluation criteria in solid tumours: revised RECIST guideline (version 1.1). Eur J Cancer 2009; 45:228-47. Safety was continuously evaluated, and the severity of adverse events was assessed by the investigator using the National Cancer Institute Common Terminology Criteria for Adverse Events, version 4. Progression-free survival was tested by stratified log-rank test; significance level 0.04. Overall response rate was tested by 2-sided Fisher's exact test; significance level Of 0.01.
Efficacy was analyzed in all randomized patients by the intent-to-treat principle. Safety was analyzed in all patients who received at least one dose of study treatment. For time-to-event endpoints, hypothesis testing was done using the stratified log-rank test with the stratification factors used for randomization; median durations and associated 95% confidence intervals were estimated using the Kaplan-Meier method. Hazard ratios were estimated using Cox regression models. Hypothesis testing for objective response was done with the Cochran-Mantel-Haenszel method. All subgroup analyses of overall survival and progression-free survival were prespecified except for those based on extrahepatic spread of disease or macrovascular invasion as separate factors or sorafenib as the only prior therapy. For subgroup analyses, no adjustments were made for multiplicity, hazard ratios are unstratified, and confidence intervals are considered descriptive.
Patients on both arms who had disease progression could continue treatment at the discretion of the investigator [see Clinical Studies (14)].

CYP2E1 = CYP2E1 (Homo sapiens, UniProt P05181); test: In vitro metabolic pathways; assay type: in vitro ADME
CYP2E1, sequence (P05181 whole entry): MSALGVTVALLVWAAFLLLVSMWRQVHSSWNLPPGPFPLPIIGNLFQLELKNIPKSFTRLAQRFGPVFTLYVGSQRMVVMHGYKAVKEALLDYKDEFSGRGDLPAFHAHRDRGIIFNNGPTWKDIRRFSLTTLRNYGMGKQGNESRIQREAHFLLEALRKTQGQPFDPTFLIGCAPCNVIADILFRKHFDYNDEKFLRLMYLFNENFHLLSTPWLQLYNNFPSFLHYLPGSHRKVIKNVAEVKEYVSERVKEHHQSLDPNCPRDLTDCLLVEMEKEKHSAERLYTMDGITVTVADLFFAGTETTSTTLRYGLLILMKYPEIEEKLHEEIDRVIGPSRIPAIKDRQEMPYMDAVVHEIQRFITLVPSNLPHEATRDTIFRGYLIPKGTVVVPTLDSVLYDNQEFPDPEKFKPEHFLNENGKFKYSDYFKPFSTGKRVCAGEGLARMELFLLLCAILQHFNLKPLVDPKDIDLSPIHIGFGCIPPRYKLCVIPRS

CYP2D6 = CYP2D6 (Homo sapiens, UniProt P10635); test: In vitro metabolic pathways; assay type: in vitro ADME
CYP2D6, sequence (P10635 whole entry): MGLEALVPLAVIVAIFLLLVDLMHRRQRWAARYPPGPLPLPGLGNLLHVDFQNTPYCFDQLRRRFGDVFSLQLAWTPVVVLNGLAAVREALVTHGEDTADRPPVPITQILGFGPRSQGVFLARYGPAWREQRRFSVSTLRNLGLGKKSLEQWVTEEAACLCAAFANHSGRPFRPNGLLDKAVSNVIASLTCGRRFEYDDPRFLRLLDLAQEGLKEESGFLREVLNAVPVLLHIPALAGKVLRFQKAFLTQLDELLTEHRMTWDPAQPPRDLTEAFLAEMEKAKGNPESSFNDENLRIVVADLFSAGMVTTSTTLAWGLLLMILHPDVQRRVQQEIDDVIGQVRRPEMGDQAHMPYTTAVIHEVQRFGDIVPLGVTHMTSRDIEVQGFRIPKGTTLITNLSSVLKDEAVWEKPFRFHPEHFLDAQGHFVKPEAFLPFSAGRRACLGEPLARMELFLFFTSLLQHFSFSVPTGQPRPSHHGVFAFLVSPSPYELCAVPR

[3] = subgroup whose only prior systemic therapy was sorafenib

COc1cc2nccc(Oc3ccc(NC(=O)C4(C(=O)Nc5ccc(F)cc5)CC4)cc3)c2cc1OC [cabozantinib]
Kaplan-Meier landmark estimate of % of patients alive (95% CI) ([1]; 6 months): 72 (67-76) % | Kaplan-Meier landmark estimate of % of patients alive (95% CI) ([1]; 12 months): 46 (41-50) % | Kaplan-Meier landmark estimate of % of patients alive (95% CI) ([1]; 18 months): 32 (27-37) % | Kaplan-Meier landmark estimate of % of patients alive (95% CI) ([1]; 24 months): 18 (14-22) % | Disease control (partial response or stable disease) ([1]; ITT): 64% | Median overall survival ([1]; ITT, second interim analysis, 60 mg once daily): 10.2 months | Objective response rate ([1]; RECIST 1.1, confirmed responses, ITT): 4% | Median progression-free survival ([1]; RECIST 1.1 per investigator, ITT): 5.2 months | Best overall response: complete response, n (%) ([1]; by investigator): 0 | Best overall response: not evaluable or missing ([1]; by investigator): (15) % | Best overall response: partial response ([1]; by investigator): (4) % | Best overall response: progressive disease ([1]; by investigator): (21) % | Best overall response: stable disease ([1]; by investigator): (60) % | Improvement in progression-free survival vs placebo ([1]; in vivo): more than 3 months | Median overall survival [1, 3]: 11.3 months | Median progression-free survival [1, 3]: 5.5 months | Tyrosine kinase activity of KIT (KIT): inhibits | Induction of CYP1A2 (CYP1A2): does not induce | Exposure at that dose, times the human exposure by AUC at the recommended 60 mg dose (Sprague-Dawley rats; 1 mg/kg): approximately 5 times | Dose with statistically significant increase in incidence of pheochromocytoma in male rats (Sprague-Dawley rats; once daily oral, 2-year): 1 mg/kg | Effect of inhibition of CYP2B6 on metabolite formation (CYP2B6): no effect | Mortality (juvenile rats; 2 mg/kg): high levels of mortality | Effects on bones (juvenile rats; rat, in vivo): reduced bone mineral content and density, physeal hypertrophy, and decreased cortical bone | Recovery after treatment ceased (juvenile rats; rat, in vivo): effects on bone parameters were partially resolved but effects on the kidney and epididymis/testis persisted | Target organs (juvenile rats; rat, in vivo): kidney (nephropathy, glomerulonephritis), reproductive organs, gastrointestinal tract | 1 mg/kg/day as times the clinical dose of 60 mg/day based on body surface area (juvenile rats; rat, in vivo, 1 mg/kg/day): approximately 0.16 times | 2 mg/kg as times the clinical dose of 60 mg based on body surface area (juvenile rats; rat, in vivo, 2 mg/kg): approximately 0.32 times | Grade 5 adverse events considered related to study treatment ([2]; CELESTIAL): 6 patients | Grade 5 adverse events within 30 days of last dose ([2]; CELESTIAL): 12% | Adverse events of any grade regardless of causality ([2]; human, in vivo): 99% | Adverse events of grade 3 or 4 ([2]; human, in vivo): 68% | Any dose reduction ([2]; human, in vivo): 62% | Diarrhea, Grade 3/4 ([2]; human, in vivo): 10% | Discontinuation due to treatment-related adverse event ([2]; human, in vivo): 16% | Dose reduction due to diarrhea ([2]; human, in vivo): 10% | Dose reduction due to fatigue ([2]; human, in vivo): 7% | Dose reduction due to hypertension ([2]; human, in vivo): 7% | Dose reduction due to increased aspartate aminotransferase ([2]; human, in vivo): 6% | Dose reduction due to palmar-plantar erythrodysesthesia syndrome ([2]; human, in vivo): 22% | Fatigue, Grade 3/4 ([2]; human, in vivo): 10% | Hypertension, Grade 3/4 ([2]; human, in vivo): 16% | Increased aspartate aminotransferase, grade 3 or 4 adverse event ([2]; human, in vivo): 12% | Median time to first dose reduction ([2]; human, in vivo): 38 days | Palmar-plantar erythrodysesthesia, Grade 3/4 ([2]; human, in vivo): 17% | Serious adverse events ([2]; human, in vivo): 50% | Effect of inhibition of CYP2E1 on metabolite formation (CYP2E1): no effect | Effect of inhibition of CYP2D6 on metabolite formation (CYP2D6): no effect

From patent publication US20190262330A1, “Method of Treating Hepatocellular Carcinoma Using N-(4-(6,7-dimethoxyquinolin-4-yloxy)phenyl)-N′-(4-fluorophenyl)cyclopropane-1,1-dicarboxamide, (2S)-hydroxybutanedioate” (Exelixis, Inc., priority 2017, published 2019)
